Among the data in patent US20240425479A1, “HALO-SUBSTITUTED AMINO AZA-HETEROARYL COMPOUNDS AS INHIBITORS OF THE HAEMATOPOIETIC PROGENITOR KINASE 1 (HPK1)” (priority 2021, published 2024) are IC50 values, retold here.

This assay concerns the target T1, Recombinant (1-346) HPK1 (h) (Homo sapiens, UniProt Q92918).
T1 construct: Recombinant (1-346) HPK1 (h) is incubated with 8 mM MOPS pH 7.0
T1 sequence (Q92918 1-346): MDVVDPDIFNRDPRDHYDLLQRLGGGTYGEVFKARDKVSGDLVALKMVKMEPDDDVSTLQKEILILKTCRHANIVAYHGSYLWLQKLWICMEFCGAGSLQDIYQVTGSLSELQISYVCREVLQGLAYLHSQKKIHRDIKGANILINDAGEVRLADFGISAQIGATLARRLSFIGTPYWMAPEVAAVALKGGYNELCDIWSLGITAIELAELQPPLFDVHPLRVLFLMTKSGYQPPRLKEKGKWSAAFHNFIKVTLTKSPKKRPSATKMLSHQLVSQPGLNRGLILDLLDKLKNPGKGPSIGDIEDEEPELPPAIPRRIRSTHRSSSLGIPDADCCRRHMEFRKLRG
In words: HPK1 human STE kinase enzymatic radiometric assay. The conditions noted are these: read-out: HPK1 IC50 nM Range. It is filed as biochemical. Summed up:
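Recombinant HPK1 (1-346) incubated 40 min at RT with 0.33 mg/mL myelin basic protein and [gamma-33P]-ATP in 8 mM MOPS pH 7.0, 0.2 mM EDTA, 10 mM Mg acetate; reaction started with Mg/ATP. Stopped with 0.5% phosphoric acid, spotted on P30 filtermat, washed, scintillation counted. Compounds tested as 9-point 3-fold dilutions.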
Regarding `CN(C)Cc1cc(-c2nc(-c3ccc4c(c3)CCNC4=O)c(N)nc2F)c(F)c(F)c1N1CCOCC1` [Example I-262, 6-(3-amino-6-(5-((dimethylamino)methyl)-2,3-difluoro-4-morpholinophenyl)-5-fluoropyrazin-2-yl)-3,4-dihydroisoquinolin-1(2H)-one], the IC50 (as a rule, the concentration that inhibits the measured activity by half) is 101 to 1000 nM.

With `Cc1c[nH]c(=O)c2c(F)cc(-c3nc(-c4ccc(C5CCOCC5)c(CN(C)C)c4)c(F)nc3N)cc12` [Example I-167, 6-(3-amino-6-(3-((dimethylamino)methyl)-4-(tetrahydro-2H-pyran-4-yl)phenyl)-5-fluoropyrazin-2-yl)-8-fluoro-4-methylisoquinolin-1(2H)-one], the IC50 lay in the range of 0.1 to 10 nM.

With `Nc1nc(F)c(-c2ccc(N3CCN(CC4CC4)CC3)cc2)nc1-c1ccc2c(c1)C1(CC1)CNC2=O` [Example I-108, 6′-(3-amino-6-(4-(4-(cyclopropylmethyl)piperazin-1-yl)phenyl)-5-fluoropyrazin-2-yl)-2′,3′-dihydro-1′H-spiro[cyclopropane-1,4′-isoquinolin]-1′-one], the IC50 lay within 0.1 to 10 nM.

For the compound `CN(C)Cc1cc(-c2nc(-c3ccc4c(c3)CCNC4=O)c(N)nc2F)c(F)cc1N1CCOCC1` [Example I-258, 6-(3-amino-6-(5-((dimethylamino)methyl)-2-fluoro-4-morpholinophenyl)-5-fluoropyrazin-2-yl)-3,4-dihydroisoquinolin-1(2H)-one], the IC50 is 101 to 1000 nM.

`COC1CCN(Cc2cc(-c3nc(-c4ccc5c(c4)CCNC5=O)c(N)nc3F)ccc2C2CCOCC2)CC1` [Example I-131, 6-(3-amino-5-fluoro-6-(3-((4-methoxypiperidin-1-yl)methyl)-4-(tetrahydro-2H-pyran-4-yl)phenyl)pyrazin-2-yl)-3,4-dihydroisoquinolin-1(2H)-one]: the IC50 was in the range of 11 to 100 nM.

For the compound `COCCN(C)Cc1cc(-c2nc(-c3ccc4c(c3)CCNC4=O)c(N)nc2F)ccc1C1CCOCC1` [Example I-174, 6-(3-amino-5-fluoro-6-(3-(((2-methoxyethyl)(methyl)amino)methyl)-4-(tetrahydro-2H-pyran-4-yl)phenyl)pyrazin-2-yl)-3,4-dihydroisoquinolin-1(2H)-one], the IC50 lay within 0.1 to 10 nM.

Turning to `Nc1nc(F)c(-c2ccc(C3CCOCC3)c(CN3CCCC3)c2)nc1-c1ccc2c(c1)CCNC2=O` [Example I-147, 6-(3-amino-5-fluoro-6-(3-(pyrrolidin-1-ylmethyl)-4-(tetrahydro-2H-pyran-4-yl)phenyl)pyrazin-2-yl)-3,4-dihydroisoquinolin-1(2H)-one], the IC50 is 0.1 to 10 nM.

On to `CN(C)Cc1cccc(-c2nc(-c3cc4c(cc3F)C(=O)NCC4)c(N)nc2F)c1` [Example I-278, 6-(3-amino-6-(3-((dimethylamino)methyl)phenyl)-5-fluoropyrazin-2-yl)-7-fluoro-3,4-dihydroisoquinolin-1(2H)-one], for which the IC50 was 11 to 100 nM.

`Cc1cc(-c2nc(-c3ccc4c(=O)[nH]cc(F)c4c3)c(N)nc2F)cc2c1CCN(C)C2` [Example I-296, 6-(3-amino-6-(2,5-dimethyl-1,2,3,4-tetrahydroisoquinolin-7-yl)-5-fluoropyrazin-2-yl)-4-fluoroisoquinolin-1(2H)-one]: the IC50 is 0.1 to 10 nM.

For the compound `CN(C)Cc1cc(-c2nc(-c3ccc4c(=O)[nH]cc(F)c4c3)c(N)nc2F)cc2c1OCCC2` [Example I-268, 6-(3-amino-6-(8-((dimethylamino)methyl)chroman-6-yl)-5-fluoropyrazin-2-yl)-4-fluoroisoquinolin-1(2H)-one], the IC50 lay within 0.1 to 10 nM.

As to `Nc1nc(F)c(-c2ccc(N3CCN(CCC(F)F)CC3)cc2)nc1-c1ccc2c(=O)[nH]ccc2c1` [Example I-86, 6-(3-amino-6-(4-(4-(3,3-difluoropropyl)piperazin-1-yl)phenyl)-5-fluoropyrazin-2-yl)isoquinolin-1(2H)-one], the IC50 was 11 to 100 nM.

With `C[C@H]1CCCN1Cc1cc(-c2nc(-c3ccc4c(=O)[nH]cc(Cl)c4c3)c(N)nc2F)ccc1C1CCOCC1` [Example I-229, (S)-6-(3-amino-5-fluoro-6-(3-((2-methylpyrrolidin-1-yl)methyl)-4-(tetrahydro-2H-pyran-4-yl)phenyl)pyrazin-2-yl)-4-chloroisoquinolin-1(2H)-one], the IC50 was in the range of 11 to 100 nM.

Consider `C[C@H]1CN(c2ccc(-c3nc(-c4cc5c(cc4F)C(=O)NCC5)c(N)nc3F)cc2CN2CCC2)CCO1` [Example I-215, (S)-6-(3-amino-6-(3-(azetidin-1-ylmethyl)-4-(2-methylmorpholino)phenyl)-5-fluoropyrazin-2-yl)-7-fluoro-3,4-dihydroisoquinolin-1(2H)-one], for which the IC50 was in the range of 0.1 to 10 nM.

Regarding `COCCN(C)Cc1cc(-c2nc(-c3cc4c(cc3F)C(=O)NCC4)c(N)nc2F)ccc1N1CCOCC1` [Example I-161, 6-(3-amino-5-fluoro-6-(3-(((2-methoxyethyl)(methyl)amino)methyl)-4-morpholinophenyl)pyrazin-2-yl)-7-fluoro-3,4-dihydroisoquinolin-1(2H)-one], the IC50 is 0.1 to 10 nM.

With `Cc1cc2cc(-c3nc(-c4ccc(C5CCOCC5)c(CN(C)C)c4)c(F)nc3N)c(F)cc2c(=O)[nH]1` [Example I-184, 6-(3-amino-6-(3-((dimethylamino)methyl)-4-(tetrahydro-2H-pyran-4-yl)phenyl)-5-fluoropyrazin-2-yl)-7-fluoro-3-methylisoquinolin-1(2H)-one], the IC50 was 0.1 to 10 nM.

As for `C[C@@H]1CCCN1Cc1cc(-c2nc(-c3cc(F)c4c(c3)CCNC4=O)c(N)nc2F)ccc1C1CCOCC1` [Example I-218, (R)-6-(3-amino-5-fluoro-6-(3-((2-methylpyrrolidin-1-yl)methyl)-4-(tetrahydro-2H-pyran-4-yl)phenyl)pyrazin-2-yl)-8-fluoro-3,4-dihydroisoquinolin-1(2H)-one], the half-maximal inhibitory concentration (IC50) fell in the range of 11 to 100 nM.

`CCN(C)Cc1cc(-c2nc(-c3ccc4c(c3)C(F)(F)CNC4=O)c(N)nc2F)ccc1C1CCOCC1` [Example I-224, 6-(3-amino-6-(3-((ethyl(methyl)amino)methyl)-4-(tetrahydro-2H-pyran-4-yl)phenyl)-5-fluoropyrazin-2-yl)-4,4-difluoro-3,4-dihydroisoquinolin-1(2H)-one]: the IC50 is 0.1 to 10 nM.

For the compound `COC1CN(Cc2cc(-c3nc(-c4cc5c(cc4F)C(=O)NCC5)c(N)nc3F)ccc2N2CCOCC2)C1` [Example I-189, 6-(3-amino-5-fluoro-6-(3-((3-methoxyazetidin-1-yl)methyl)-4-morpholinophenyl)pyrazin-2-yl)-7-fluoro-3,4-dihydroisoquinolin-1(2H)-one], the IC50 is 0.1 to 10 nM.

With `Cc1c[nH]c(=O)c2ccc(-c3nc(-c4ccc5c(c4)[C@H](N(C)C)CCO5)c(F)nc3N)cc12` [Example I-285, (R)-6-(3-amino-6-(4-(dimethylamino)chroman-6-yl)-5-fluoropyrazin-2-yl)-4-methylisoquinolin-1(2H)-one], the IC50 lay within 0.1 to 10 nM.

Regarding `COc1ccc(-c2nc(-c3ccc4c(c3)CCNC4=O)c(N)nc2F)cc1C#N` [Example I-292, 5-(5-amino-3-fluoro-6-(1-oxo-1,2,3,4-tetrahydroisoquinolin-6-yl)pyrazin-2-yl)-2-methoxybenzonitrile], the IC50 was in the range of 11 to 100 nM.

Turning to `Nc1nc(F)c(-c2ccc(N3CCN(CCCC(F)F)CC3)cc2)nc1-c1ccc2c(=O)[nH]ccc2c1` [Example I-70, 6-(3-amino-6-(4-(4-(4,4-difluorobutyl)piperazin-1-yl)phenyl)-5-fluoropyrazin-2-yl)isoquinolin-1(2H)-one], the IC50 was in the range of 0.1 to 10 nM.
